Test results published in BindingDB's records for doi:10.1021/np049624z (Harvard Medical School, 2005).

Target: Forkhead box protein O1 (Homo sapiens, UniProt Q12778)
Assay: Inhibition of FOXO1a nuclear export in PTEN-deficient cells

Forkhead box protein O1, sequence (Q12778 whole entry): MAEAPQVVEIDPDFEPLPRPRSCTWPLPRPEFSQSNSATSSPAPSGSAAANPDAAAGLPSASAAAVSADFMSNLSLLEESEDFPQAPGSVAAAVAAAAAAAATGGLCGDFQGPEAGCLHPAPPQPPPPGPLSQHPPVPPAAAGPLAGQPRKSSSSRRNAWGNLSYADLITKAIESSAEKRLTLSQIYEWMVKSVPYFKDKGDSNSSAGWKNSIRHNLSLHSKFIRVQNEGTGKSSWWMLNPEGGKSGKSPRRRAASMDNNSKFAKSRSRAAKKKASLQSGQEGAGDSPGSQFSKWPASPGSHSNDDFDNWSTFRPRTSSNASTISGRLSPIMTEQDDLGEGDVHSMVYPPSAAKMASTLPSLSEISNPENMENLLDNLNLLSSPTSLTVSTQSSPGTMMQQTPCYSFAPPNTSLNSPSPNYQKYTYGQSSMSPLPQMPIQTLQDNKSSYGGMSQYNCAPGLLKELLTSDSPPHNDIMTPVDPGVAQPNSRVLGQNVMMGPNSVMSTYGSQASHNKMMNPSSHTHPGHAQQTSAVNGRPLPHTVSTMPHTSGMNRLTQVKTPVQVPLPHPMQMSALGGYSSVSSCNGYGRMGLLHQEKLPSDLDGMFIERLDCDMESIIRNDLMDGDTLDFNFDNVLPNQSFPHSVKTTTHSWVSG

Row | Compound | IC50 [µM]
1 | CN(C)CCCOc1c(Br)cc(/C=C/C(=O)NCCCOc2c(Br)cc(CCN(C)C)cc2Br)cc1Br [psammaplysene A] | 5
2 | CNCCCOc1c(Br)cc(/C=C/C(=O)NCCCOc2c(Br)cc(CCN(C)C)cc2Br)cc1Br [psammaplysene B] | 20
